{
  "source": "the OPERA property sets (Mansouri et al. 2018)",
  "data": [
    {"settings": "not given", "units": {"melting point": "°C", "boiling point": "°C"}, "values": [
      {"smiles": "CCNc1nc(NCC)nc(OC)n1", "log10 Koc (L/kg)": 2.34, "log10 vapour pressure (mmHg)": -5.62},
      {"smiles": "COc1nc(C)nc(NC(=O)NS(=O)(=O)c2ccccc2OCCCl)n1", "log10 Koc (L/kg)": 2.02, "melting point": 186},
      {"smiles": "CC1(C)[C@H](C=C(Cl)Cl)[C@H]1C(=O)OCc1cccc(Oc2ccccc2)c1", "ready biodegradability": "not readily biodegradable"},
      {"smiles": "CNCCNC", "boiling point": 120},
      {"smiles": "CCN(CC)c1ccc2c(-c3ccccc3C(=O)O)c3ccc(N(CC)CC)cc3[o+]c2c1.[Cl-]", "melting point": 165},
      {"smiles": "CCCCCCCCCCCCCC(=O)CCCCCCCCCCCCC", "melting point": 77.5},
      {"smiles": "CC(C)CCC(=O)O", "boiling point": 200, "melting point": -33},
      {"smiles": "CC(C)C(C)CC(C)(C)C", "note": "(stereo unspecified)", "boiling point": 148, "log10 vapour pressure (mmHg)": 0.779},
      {"smiles": "O=C(O)c1cc(O)nc(O)n1", "melting point": 346},
      {"smiles": "CCCCCF", "boiling point": 62.8, "log10 vapour pressure (mmHg)": 2.27, "melting point": -120},
      {"smiles": "CCCC(=O)OCCC(C)C", "boiling point": 179, "log10 vapour pressure (mmHg)": -0.0223, "melting point": -73.2},
      {"smiles": "CCCCCCC(=O)Cl", "boiling point": 145, "log10 vapour pressure (mmHg)": -0.35, "melting point": -83.8},
      {"smiles": "Nc1ccc(N)c2ccccc12", "melting point": 120},
      {"smiles": "c1ccc2c(c1)Cc1ccccc1O2", "boiling point": 311, "melting point": 100},
      {"smiles": "CC(C)C(O)CO", "note": "(stereo unspecified)", "boiling point": 206},
      {"smiles": "O=C(O)CCc1ccc(O)cc1", "melting point": 131},
      {"smiles": "Cc1cccc(C(=O)Cl)c1", "boiling point": 220, "melting point": -23},
      {"smiles": "Oc1cccc(O)c1", "boiling point": 280, "log10 Koc (L/kg)": 0.98, "log10 vapour pressure (mmHg)": -3.31, "melting point": 111, "ready biodegradability": "readily biodegradable"},
      {"smiles": "ClCC(Cl)Cl", "boiling point": 114, "log10 Henry constant (atm·m³/mol)": -3.08, "log10 Koa": 3.4, "log10 Koc (L/kg)": 1.89, "log10 vapour pressure (mmHg)": 1.36, "melting point": -36.6, "ready biodegradability": "not readily biodegradable"},
      {"smiles": "CCCOC(=O)c1ccoc1", "boiling point": 211},
      {"smiles": "C=C1/C(=C\\C=C2/CCC[C@]3(C)[C@@H]([C@H](C)CCCC(C)(C)O)CC[C@@H]23)C[C@@H](O)C[C@@H]1O", "melting point": 115},
      {"smiles": "CCCCCCCCCCCCCCCCC1CCCCC1", "boiling point": 385, "melting point": 33.6},
      {"smiles": "CC1CCCCC1NC(=O)Nc1ccccc1", "note": "(stereo unspecified)", "log10 Koc (L/kg)": 2.31, "log10 vapour pressure (mmHg)": -8.4, "melting point": 136},
      {"smiles": "CC(C)c1ccncc1", "boiling point": 178, "melting point": -54.9},
      {"smiles": "BrCCCCCCCCCCCCBr", "melting point": 41},
      {"smiles": "C=Cc1ccccc1Cl", "boiling point": 189, "log10 vapour pressure (mmHg)": -0.0173, "melting point": -63.1, "ready biodegradability": "not readily biodegradable"},
      {"smiles": "Nc1ccc(/N=N/c2ccc(S(N)(=O)=O)cc2)c(N)c1", "melting point": 250},
      {"smiles": "CNc1ccc(NCCO)c2c1C(=O)c1ccccc1C2=O", "melting point": 187},
      {"smiles": "COc1cccc(NC(=O)N(C)C)c1", "log10 Koc (L/kg)": 1.72},
      {"smiles": "Clc1ccc2c(Cl)c(Cl)c(Cl)c(Cl)c2c1", "log10 vapour pressure (mmHg)": -5.96},
      {"smiles": "O=C(c1ccccc1)c1ccc2n1CCC2C(=O)O", "note": "(stereo unspecified)", "melting point": 160},
      {"smiles": "CCOC(=O)C(C)OC(=O)c1cc(Oc2ccc(C(F)(F)F)cc2Cl)ccc1[N+](=O)[O-]", "note": "(stereo unspecified)", "log10 Koc (L/kg)": 4, "melting point": 45},
      {"smiles": "NC(Cc1ccccc1)C(=O)O", "note": "(stereo unspecified)", "ready biodegradability": "readily biodegradable"},
      {"smiles": "C#CCCCCCCC(=O)O", "melting point": 19},
      {"smiles": "Cc1cc2ccccc2[nH]1", "boiling point": 272, "melting point": 61},
      {"smiles": "Clc1ccc(-c2ccc(Cl)c(Cl)c2Cl)cc1Cl", "log10 Koa": 10, "log10 vapour pressure (mmHg)": -5.18},
      {"smiles": "CCCCCCCCCCCCC#N", "boiling point": 293, "melting point": 9.7},
      {"smiles": "Nc1ccc(Cl)c(Cl)c1", "boiling point": 272, "log10 Koc (L/kg)": 2.29, "log10 vapour pressure (mmHg)": -2.2, "melting point": 72, "ready biodegradability": "not readily biodegradable"},
      {"smiles": "CNC(C)CC1CCCCC1", "note": "(stereo unspecified)", "boiling point": 205},
      {"smiles": "Cc1ccsc1Br", "boiling point": 176},
      {"smiles": "Cc1ccc(C(=O)NS(=O)(=O)c2ccc(N)cc2)cc1C", "melting point": 222},
      {"smiles": "FC(F)(I)C(F)(F)I", "boiling point": 112},
      {"smiles": "CCCCCCCCN(C)C", "boiling point": 191, "melting point": -57},
      {"smiles": "CCC(C#N)CC#N", "note": "(stereo unspecified)", "boiling point": 264, "log10 vapour pressure (mmHg)": -1.72, "melting point": -41},
      {"smiles": "C[C@]12CCC(=O)C=C1CC[C@@H]1[C@@H]2C(=O)C[C@@]2(C)[C@H]1CC[C@]2(O)[C@H](O)CO", "melting point": 208},
      {"smiles": "COc1ccc(C#N)cc1", "boiling point": 256, "melting point": 61.5},
      {"smiles": "CCCCSC#N", "boiling point": 186},
      {"smiles": "CN1CC[C@]23CCCC[C@H]2[C@H]1Cc1ccc(O)cc13", "melting point": 198},
      {"smiles": "CC(Cl)CC(C)Cl", "note": "(stereo unspecified)", "boiling point": 145},
      {"smiles": "CCCCOc1ccc(OCCCC)cc1", "melting point": 45.5},
      {"smiles": "CN1CCC(N(Cc2cccs2)c2ccccc2)CC1", "melting point": 96},
      {"smiles": "CC(=O)CCC=C(C)C", "boiling point": 174, "melting point": -67.1, "ready biodegradability": "readily biodegradable"},
      {"smiles": "CC(C)CCC(O)C(C)C", "note": "(stereo unspecified)", "boiling point": 175},
      {"smiles": "COC(=O)c1cc(Cl)cc(N)c1Cl", "log10 Koc (L/kg)": 2.74},
      {"smiles": "CC(=O)c1ccc(N)cc1", "boiling point": 294, "ready biodegradability": "not readily biodegradable"},
      {"smiles": "CC(=O)c1c(O)c(C)c(O)c(Cc2c(O)c3c(c(C(=O)/C=C/c4ccccc4)c2O)OC(C)(C)C=C3)c1O", "melting point": 212},
      {"smiles": "NC(=O)c1ccccc1[N+](=O)[O-]", "boiling point": 317, "log10 Koc (L/kg)": 1.45, "melting point": 177},
      {"smiles": "FC(F)(F)C(F)(F)C(F)(F)C(F)(F)OC(F)(F)C(F)(F)C(F)(F)C(F)(F)F", "boiling point": 102, "melting point": -100},
      {"smiles": "c1ccc(C2CCOCO2)cc1", "note": "(stereo unspecified)", "boiling point": 247},
      {"smiles": "C=CC(=O)OCCOC(=O)C=C", "log10 vapour pressure (mmHg)": -1.18},
      {"smiles": "CC1CS(=O)(=O)CCN1N=Cc1ccc([N+](=O)[O-])o1", "note": "(stereo unspecified)", "melting point": 181},
      {"smiles": "Nc1ccc(Br)cc1", "log10 Koc (L/kg)": 1.96, "melting point": 66.4},
      {"smiles": "Cc1ccc(Cl)cc1[N+](=O)[O-]", "boiling point": 242, "melting point": 38},
      {"smiles": "CC1(O)CCCC1", "boiling point": 136, "melting point": 36},
      {"smiles": "ClCCCOc1ccccc1", "boiling point": 250, "melting point": 12},
      {"smiles": "CCc1ncc(C)cc1C", "boiling point": 198},
      {"smiles": "O=C=Nc1cccc([N+](=O)[O-])c1", "melting point": 51},
      {"smiles": "CCC(C)C(C)C(C)C", "note": "(stereo unspecified)", "boiling point": 139, "log10 vapour pressure (mmHg)": 0.955},
      {"smiles": "Cc1cc(C)cc([N+](=O)[O-])c1", "boiling point": 274, "melting point": 75},
      {"smiles": "CCCCCCc1ccc2ccccc2c1", "boiling point": 324, "melting point": -3},
      {"smiles": "O=C(CCc1ccc(O)cc1)c1c(O)cc(O)cc1O[C@@H]1O[C@H](CO)[C@@H](O)[C@H](O)[C@H]1O", "melting point": 110},
      {"smiles": "Cc1coc2ccccc12", "boiling point": 197},
      {"smiles": "CCCC1COC(Cn2cncn2)(c2ccc(Cl)cc2Cl)O1", "note": "(stereo unspecified)", "log10 Koc (L/kg)": 3.39, "log10 vapour pressure (mmHg)": -6.38},
      {"smiles": "FCc1ccccc1", "boiling point": 140, "log10 vapour pressure (mmHg)": 0.832, "melting point": -35},
      {"smiles": "N#CCCCCCN", "boiling point": 236, "log10 vapour pressure (mmHg)": -0.745, "melting point": -31.4},
      {"smiles": "CC[C@H]1CC[C@H](C)NC1", "log10 vapour pressure (mmHg)": 0.458},
      {"smiles": "ClC(Cl)(Br)Br", "boiling point": 150, "melting point": 38},
      {"smiles": "c1ccc2c(c1)Sc1ccccc1N2CC1CN2CCC1CC2", "note": "(stereo unspecified)", "melting point": 130},
      {"smiles": "CNC(=O)Oc1cccc(C(C)C)c1", "melting point": 73},
      {"smiles": "O=C(Cl)OCc1ccccc1", "boiling point": 152, "log10 vapour pressure (mmHg)": -2.51},
      {"smiles": "Nc1cccc2cc3ccccc3cc12", "melting point": 116},
      {"smiles": "O[C@@H]1CCc2ccccc2C1", "melting point": 15.5},
      {"smiles": "CCC(=O)OC1CCCCC1", "boiling point": 193},
      {"smiles": "COc1cc(O)c(C(=O)c2ccccc2)c(O)c1", "melting point": 130},
      {"smiles": "CC1CC1(C)C", "note": "(stereo unspecified)", "boiling point": 54, "melting point": -138},
      {"smiles": "ICCCCI", "melting point": 5.8},
      {"smiles": "CCCCOC(=O)CCC", "boiling point": 166, "log10 vapour pressure (mmHg)": 0.258, "melting point": -91.5},
      {"smiles": "CCCCc1c(C)nc(N(C)C)nc1O", "log10 Koc (L/kg)": 1.95, "log10 vapour pressure (mmHg)": -4.96, "melting point": 102},
      {"smiles": "COc1cc(OC)nc(NC(=O)NS(=O)(=O)c2ncccc2C(=O)N(C)C)n1", "log10 Koc (L/kg)": 1.48, "melting point": 142},
      {"smiles": "C=C(C)C1CC=C(C)C(O)C1", "note": "(stereo unspecified)", "boiling point": 228},
      {"smiles": "CCCCCCCCCCCCCCCCC#N", "boiling point": 349, "melting point": 34},
      {"smiles": "CC(C)C(N)=O", "boiling point": 218, "melting point": 128},
      {"smiles": "NNCCO", "boiling point": 219, "melting point": -70},
      {"smiles": "CCCCCCCNCCCCCCC", "boiling point": 271, "melting point": 31.5},
      {"smiles": "NC(=O)CN1Cc2ccccc2OC1=O", "melting point": 204},
      {"smiles": "O=c1c(O)c(-c2ccc(O)cc2)oc2cc(O)cc(O)c12", "melting point": 277},
      {"smiles": "CC1=CC(=O)C=CC1=O", "melting point": 69},
      {"smiles": "CCCCOC(=O)C(Cl)(Cl)Cl", "boiling point": 204}
    ]},
    {"settings": "fish", "values": [
      {"smiles": "ClCC(Cl)Cl", "log10 BCF": 0.7, "log10 biotransformation half-life (days)": -1.01},
      {"smiles": "Clc1ccc(-c2ccc(Cl)c(Cl)c2Cl)cc1Cl", "log10 biotransformation half-life (days)": 2.06},
      {"smiles": "Nc1ccc(Cl)c(Cl)c1", "log10 BCF": 1.11, "log10 biotransformation half-life (days)": -1.09},
      {"smiles": "Cc1ccc(Cl)cc1[N+](=O)[O-]", "log10 BCF": 1.92},
      {"smiles": "CCCC1COC(Cn2cncn2)(c2ccc(Cl)cc2Cl)O1", "note": "(stereo unspecified)", "log10 biotransformation half-life (days)": 0.7}
    ]}
  ]
}
